{"source": "patent US12016314B2", "about": "“MicroRNA inhibitor therapy in systemic lupus erythematosus” (Ohio State Innovation Foundation, priority 2017, dated 2024)", "molecules": {"B1": {"name": "prolactin: hormone prolactin (Sigma), 10 ng/mL (protein, UniProt P01236 29-227, looked up)", "Prolactin": "LPICPGGAARCQVTLRDLFDRAVVLSHYIHNLSSEMFSEFDKRYTHGRGFITKAINSCHTSSLATPEDKEQAQQMNQKDFLSLIVSILRSWNEPLYHLVTEVRGMQEAPEAILSKAVEIEEQTKRLLEGMELIVSQVHPETKENEIYPVWSGLPSLQMADEESRLSAYYNLLHCLRRDSHKIDNYLKLLKCRIIHNNNC"}}, "key": {"TLR8": {"test_system": "TLR8", "experiment": "TLR8 mRNA expression in primary human macrophages incubated with autologous serum", "format": "cell-based", "conditions": "primary human macrophages of healthy donors, 24 h", "experimental": "RNA was quantitated using a NanoDrop 1000 spectrophotometer (NanoDrop Products, Wilmington, DE). cDNA was synthesized using High Capacity cDNA Reverse Transcription Kit (Applied Biosystems, Foster City, CA) following the manufacturer's protocol and qPCR was performed using the TaqMan system (Applied Biosystems) using cDNA and gene specific primers in accordance with the manufacturer's protocol.\n(§1) To target autologous EVs containing miR-21, primary human PBMCs were isolated from whole blood as indicated above, incubated in the presence of 20% autogolous serum, and treated with locked nucleic acid (LNA) sequences designed to antagonize miR-21 (Exiqon, Vedbaek, Denmark) following liposomal complexing with DOTAP (Roche) according to the manufacturer's protocol."}, "THP-1 cells": {"test_system": "THP-1 cells", "experiment": "Nanoparticle tracking analysis of extracellular vesicle production by THP-1 cells", "format": "cell-based, human", "experimental": "as §1\nThe NanoSight LM 10 system (NanoSight, Wiltshire, United Kingdom) was used to measure the rate of Brownian motion of particles to determine the size and quantification of EVs. Briefly, the sample was injected in a NanoSight cubicle and the size of particles was obtained by determining the motion in fluid passing across the chamber. The number of particles per milliliter was measured from a 0-160 nm range and was acquired from both experimental and control samples for comparison using area under the curve calculations obtained via the linear trapezoidal analysis method."}, "IL-12": {"test_system": "IL-12", "experiment": "IL-12 secretion of THP-1 cells (ELISA)", "format": "cell-based, human", "conditions": "24 h"}, "IL-13": {"test_system": "IL-13", "experiment": "IL-13 secretion of THP-1 cells (ELISA)", "format": "cell-based, human", "conditions": "24 h"}, "STAT1": {"test_system": "STAT1", "experiment": "STAT1 mRNA transcript expression (qPCR) in hematopoietic cell lines THP-1 and K562", "conditions": "THP-1 cells, separate hormone treatments, normalized to untreated cells"}}, "data": [{"molecule": "CCN(CC)CCCC(C)Nc1ccnc2cc(Cl)ccc12", "note": "(centres unmarked) [Chloroquine, chloroquine]", "values": [{"measurement": "reduction of TLR8 mRNA expression relative to LNA-control", "setting": "TLR8", "result": "over 95%"}]}, {"molecule": "CCOCc1nc2c(N)nc3ccccc3c2n1CC(C)(C)O", "note": "[R-848]", "values": [{"measurement": "cumulative extracellular particle profiles (0-160 nm, area under the curve) relative to miR-control", "setting": "THP-1 cells", "result": 3.7, "unit": "fold"}, {"measurement": "IL-12 expression induced compared to control treatment", "setting": "IL-12", "result": 5, "unit": "fold"}, {"measurement": "IL-13 expression upregulated relative to miR-control pseudoexosomes", "setting": "IL-13", "result": 1.75, "unit": "fold"}]}, {"molecule": "C[C@]12CCC(=O)C[C@@H]1CC[C@@H]1[C@@H]2CC[C@]2(C)[C@@H](O)CC[C@@H]12", "note": "[dihydrotestosterone, 5α-androstatin-17β-ol-one]", "values": [{"measurement": "hormonal influence on STAT1 expression", "setting": "STAT1", "result": "hormonal influence was only observed with estrogen treatment"}]}, {"molecule": "CC(=O)[C@H]1CC[C@H]2[C@@H]3CCC4=CC(=O)CC[C@]4(C)[C@H]3CC[C@]12C", "note": "[progesterone]", "values": [{"measurement": "hormonal influence on STAT1 expression", "setting": "STAT1", "result": "hormonal influence was only observed with estrogen treatment"}]}, {"molecule": "LNA antagomiR-21: locked nucleic acid sequence designed to block miR-21, in liposomal complexes with DOTAP; CAACATCAGTCTGATAAGCT (LNA-modified, pattern not given here, delivered in liposomal complexes)", "values": [{"measurement": "reduction of TLR8 mRNA expression relative to LNA-control", "setting": "TLR8", "result": 46, "unit": "%"}]}, {"molecule": "B1", "values": [{"measurement": "hormonal influence on STAT1 expression", "setting": "STAT1", "result": "hormonal influence was only observed with estrogen treatment"}]}]}
